The experiment addresses T1, full length active recombinant SYK enzyme (Homo sapiens, UniProt P43405).
T1 construct: full length active recombinant SYK enzyme (Millipore, Calif.); purchased Millipore
Nature of the experiment: Inhibition of Syk tyrosine phosphorylation activity (LANCE TR-FRET kinase assay). It is filed as biochemical. The protocol: Inhibition of Syk Tyrosine Phosphorylation Activity
Potency of candidate molecules for inhibiting Syk tyrosine phosphorylation activity is assessed by measuring the ability of a test compound to inhibit Syk-mediated tyrosine phosphorylation of a Syk-specific substrate.
SYK tyrosine phosphorylation activity is measured using the LANCE™ Technology developed by Perkin Elmer Life and Analytical Sciences (Boston, Mass.). LANCE™ refers to homogeneous time resolved fluorometry applications using techniques such as time-resolved fluorescence resonance energy transfer assay (TR-FRET) (see generally for procedures in Perkin Elmer Application Note—How to Optimize a Tyrosine Kinase Assay Using Time Resolved Fluorescence-Based LANCE Detection, wwww.perkinelmer.com/lifesciences). The assay principle involves detection of a phosphorylated substrate using energy transfer from a phosphospecific europium-labeled antibody to streptavidin-allophycocyanin as an acceptor.
To test the ability of candidate molecules to inhibit SYK tyrosine phosphorylation activity, molecules are reconstituted in 30% DMSO and serially diluted 1:3 with the final dilution containing DMSO in the absence of the candidate molecule. The final DMSO concentration in the assay is 3%. Kinase assays are performed as a two part reaction. […] The second reaction involves termination of the kinase reaction and the simultaneous addition of the detection reagents—europium-labeled anti-phosphotyrosine reagent (Eu-W1024-PY100, Perkin Elmer, Boston, Mass.) and Streptavidin-Allophycocyanin detection reagent (SA-APC, Prozyme, Calif.). The kinase reaction is performed in a black U-bottom 96-well microtitre plate. The final reaction volume is 50 μL and contains a final concentration of 1 nM active SYK enzyme, 550 nM SYK-substrate, and 100 μM ATP diluted in a buffer containing 50 mM Tris pH 7.5, 5 mM MgCl2, and 1 mM DTT. The reaction is allowed to proceed for 1 hour at room temperature. The quench buffer contains 100 mM Tris pH 7.5, 300 mM NaCl2, 20 mM EDTA, 0.02% Brij35, and 0.5% BSA. The detection reagents are added to the reaction mixture at the following dilutions-1:500 for Eu-W1024-PY100 and 1:250 for SA-APC. The kinase reaction is terminated by the addition of 50 μL quench buffer containing the detection reagents. The detection is allowed to proceed for 1 hr at room temperature. Detection of the phosphorylated substrate in the absence and presence of inhibitors is measured in the TR-FRET instrument, Analyst HT (Molecular Probes, Sunnyvale, Calif.) and the condition for measurements are set up using CriterionHost Release 2.0 (Molecular Probes, Sunnyvale, Calif.). The settings used are a follows: excitation 360 nm, emission 665-7.5 nm, beam splitter 350 nm 50/50, flash 100 pulses, delay 60 us, integration 400 us, z-height 2 mm. […] IC50s were derived by non-linear regression analysis. […]
In general terms: In TR-FRET formats the signal depends on donor and acceptor labels being close together.
By IC50 is commonly meant the concentration that gives 50% inhibition. For `NC(=O)c1ccc(N[C@@H]2CCCC[C@@H]2N)nc1Nc1ccc(-n2cccn2)cc1` (relative stereo) [Example 140, 6-(cis-2-aminocyclohexylamino)-2-(4-(1H-pyrazol-1-yl)phenylamino)nicotinamide], the IC50 lay in the range of 0.01 to 0.1 µM.

For `NC(=O)c1ccc(N[C@@H]2CCCC[C@@H]2N)nc1Nc1ccc2[nH]ncc2c1` (relative stereo) [Example 141, 6-(cis-2-aminocyclohexylamino)-2-(1H-indazol-5-ylamino)nicotinamide], the IC50 was in the range of 0.001 to 0.01 µM.

With `Cc1cccc(Nc2cc(N[C@@H]3CCCC[C@@H]3N)ncc2C(N)=O)c1` (relative stereo) [Example 142, 6-(cis-2-aminocyclohexylamino)-4-(3-toluidino)nicotinamide], the IC50 was greater than 1 µM.

As to `Cc1cccc(Nc2cc(N[C@@H]3CCCC[C@@H]3N)ccc2C(N)=O)c1` [Example 1, 4-((1R,2S)-2-aminocyclohexylamino)-2-(m-tolylamino)benzamide], the IC50 was greater than 1 µM.

On to `Cn1ccc2c(Nc3cc(N[C@@H]4CCCC[C@@H]4N)ccc3C(N)=O)cccc21` [Example 2, 4-((1R,2S)-2-aminocyclohexylamino)-2-(1-methyl-1H-indol-4-ylamino)benzamide], for which the concentration for half-maximal inhibition (IC50) lay in the range of 0.1 to 1 µM.

For the molecule `NC(=O)c1ccc(N[C@@H]2CCCC[C@@H]2N)cc1Nc1ccc(F)cc1` [Example 3, 4-((1R,2S)-2-aminocyclohexylamino)-2-(4-fluorophenylamino)benzamide], the 50% inhibitory concentration (IC50) is greater than 1 µM.

In the case of `Cc1cc(C)cc(Nc2cc(N[C@@H]3CCCC[C@@H]3N)ccc2C(N)=O)c1` [Example 4, 4-((1R,2S)-2-aminocyclohexylamino)-2-(3,5-dimethylphenylamino)benzamide], the IC50 is 0.1 to 1 µM.

Consider `NC(=O)c1ccc(N[C@@H]2CCCC[C@@H]2N)cc1Nc1cccc(-n2nccn2)c1` [Example 5], for which the IC50 lay within 0.1 to 1 µM.

For the molecule `Cc1cc(Nc2cc(N[C@@H]3CCCC[C@@H]3N)ccc2C(N)=O)sn1` [Example 6, 4-((1R,2S)-2-aminocyclohexylamino)-2-(3-methylisothiazol-5-ylamino)benzamide], the IC50 was in the range of 0.01 to 0.1 µM.

With `NC(=O)c1ccc(N[C@@H]2CCCC[C@@H]2N)cc1Nc1cc(-c2ccccc2)no1` [Example 7, 4-((1R,2S)-2-aminocyclohexylamino)-2-(3-phenylisoxazol-5-ylamino)benzamide], the IC50 was 0.01 to 0.1 µM.

Take `Cn1cc(Nc2cc(N[C@@H]3CCCC[C@@H]3N)ccc2C(N)=O)cn1` [Example 8, 4-((1R,2S)-2-aminocyclohexylamino)-2-(1-methyl-1H-pyrazol-4-ylamino)benzamide]: the IC50 was greater than 1 µM.

Turning to `Cc1cc(Nc2cc(N[C@H](CC(C)C)C(N)=O)ccc2C(N)=O)sn1` [Example 9, (R)-4-(1-amino-4-methyl-1-oxopentan-2-ylamino)-2-(3-methylisothiazol-5-ylamino)benzamide], the IC50 lay within 0.01 to 0.1 µM.

For the molecule `Cc1cc(Nc2cc(N[C@H](C)C(N)=O)ccc2C(N)=O)sn1` [Example 10, (R)-4-(1-amino-1-oxopropan-2-ylamino)-2-(3-methylisothiazol-5-ylamino)benzamide], the IC50 lay in the range of 0.1 to 1 µM.

In the case of `Cc1cc(Nc2cc(N[C@@H](C(N)=O)C(C)C)ccc2C(N)=O)sn1` [Example 11, (R)-4-(1-amino-3-methyl-1-oxobutan-2-ylamino)-2-(3-methylisothiazol-5-ylamino)benzamide], the IC50 lay in the range of 0.1 to 1 µM.

As to `Cc1cc(Nc2cc(N[C@H](CC(C)C)C(N)=O)ccc2C(N)=O)no1` [Example 12, (R)-4-(1-amino-4-methyl-1-oxopentan-2-ylamino)-2-(5-methylisoxazol-3-ylamino)benzamide], the IC50 is 0.1 to 1 µM.

In the case of `Cc1cc(Nc2cc(N[C@H](CC(C)C)C(N)=O)ccc2C(N)=O)on1` [Example 13, (R)-4-(1-amino-4-methyl-1-oxopentan-2-ylamino)-2-(3-methylisoxazol-5-ylamino)benzamide], the IC50 was 0.1 to 1 µM.

In the case of `Cc1cc(Nc2cc(N[C@H](Cc3ccccc3)C(N)=O)ccc2C(N)=O)sn1` [Example 14, (R)-4-(1-amino-1-oxo-3-phenylpropan-2-ylamino)-2-(3-methylisothiazol-5-ylamino)benzamide], the IC50 lay in the range of 0.01 to 0.1 µM.

`Cc1cc(Nc2cc(N[C@H](COCc3ccccc3)C(N)=O)ccc2C(N)=O)sn1` [Example 15, (R)-4-(1-amino-3-(benzyloxy)-1-oxopropan-2-ylamino)-2-(3-methylisothiazol-5-ylamino)benzamide]: the IC50 lay in the range of 0.1 to 1 µM.

Turning to `Cc1cc(Nc2cc(N[C@H](CO)C(N)=O)ccc2C(N)=O)sn1` [Example 16, (R)-4-(1-amino-3-hydroxy-1-oxopropan-2-ylamino)-2-(3-methylisothiazol-5-ylamino)benzamide], the IC50 was 0.1 to 1 µM.

With `Cc1cc(Nc2cc(N[C@H](CC3CCCCC3)C(N)=O)ccc2C(N)=O)sn1` [Example 17, (R)-4-(1-amino-3-cyclohexyl-1-oxopropan-2-ylamino)-2-(3-methylisothiazol-5-ylamino)benzamide], the IC50 is 0.01 to 0.1 µM.

On to `Cc1cc(Nc2cc(N[C@@H](C(N)=O)c3ccccc3)ccc2C(N)=O)sn1` [Example 18, (R)-4-(2-amino-2-oxo-1-phenylethylamino)-2-(3-methylisothiazol-5-ylamino)benzamide], for which the IC50 lay within 0.1 to 1 µM.

Turning to `Cc1cc(Nc2cc(N[C@H](CC(C)C)C(N)=O)cc(F)c2C(N)=O)sn1` [Example 19, (R)-4-(1-amino-4-methyl-1-oxopentan-2-ylamino)-2-fluoro-6-(3-methylisothiazol-5-ylamino)benzamide], the 50% inhibitory concentration (IC50) was greater than 1 µM.

As for `Cc1cc(Nc2cc(N[C@H](CC(C)C)C(N)=O)c(F)cc2C(N)=O)sn1` [Example 20, (R)-4-(1-amino-4-methyl-1-oxopentan-2-ylamino)-5-fluoro-2-(3-methylisothiazol-5-ylamino)benzamide], the IC50 was 0.01 to 0.1 µM.

For `Cc1cc(Nc2cc(N[C@@H]3CCCC[C@@H]3N)c(F)cc2C(N)=O)sn1` [Example 21, 4-((1R,2S)-2-aminocyclohexylamino)-5-fluoro-2-(3-methylisothiazol-5-ylamino)benzamide], the IC50 is 0.01 to 0.1 µM.

Turning to `Cc1cc(Nc2cc(N[C@@H](C(N)=O)C3CCCCC3)ccc2C(N)=O)sn1` [Example 22, (R)-4-(2-amino-1-cyclohexyl-2-oxoethylamino)-2-(3-methylisothiazol-5-ylamino)benzamide], the IC50 lay within 0.01 to 0.1 µM.

On to `Cc1cc(Nc2c(C(N)=O)ccc(N[C@H](CC(C)C)C(N)=O)c2F)sn1` [Example 23, (R)-4-(1-amino-4-methyl-1-oxopentan-2-ylamino)-3-fluoro-2-(3-methylisothiazol-5-ylamino)benzamide], for which the IC50 is greater than 1 µM.

Regarding `Cc1cc(Nc2cc(N[C@H](Cc3ccccc3)C(N)=O)c(F)cc2C(N)=O)sn1` [Example 24, (R)-4-(1-amino-1-oxo-3-phenylpropan-2-ylamino)-5-fluoro-2-(3-methylisothiazol-5-ylamino)benzamide], the IC50 lay in the range of 0.001 to 0.01 µM.

In the case of `Cc1cc(Nc2cc(N[C@H](CC3CC3)C(N)=O)c(F)cc2C(N)=O)sn1` [Example 25, (R)-4-(1-amino-3-cyclopropyl-1-oxopropan-2-ylamino)-5-fluoro-2-(3-methylisothiazol-5-ylamino)benzamide], the IC50 lay in the range of 0.01 to 0.1 µM.

As to `CC[C@@H](Nc1cc(Nc2cc(C)ns2)c(C(N)=O)cc1F)C(N)=O` [Example 26, (R)-4-(1-amino-1-oxobutan-2-ylamino)-5-fluoro-2-(3-methylisothiazol-5-ylamino)benzamide], the IC50 is 0.01 to 0.1 µM.

Turning to `Cc1cc(Nc2cc(N[C@H](Cc3ccc(F)cc3)C(N)=O)c(F)cc2C(N)=O)sn1` [Example 27, (R)-4-(1-amino-3-(4-fluorophenyl)-1-oxopropan-2-ylamino)-5-fluoro-2-(3-methylisothiazol-5-ylamino)benzamide], the IC50 was in the range of 0.01 to 0.1 µM.

Regarding `Cc1cc(Nc2cc(N[C@H](Cc3ccc(O)cc3)C(N)=O)c(F)cc2C(N)=O)sn1` [Example 28, (R)-4-(1-amino-3-(4-hydroxyphenyl)-1-oxopropan-2-ylamino)-5-fluoro-2-(3-methylisothiazol-5-ylamino)benzamide], the IC50 lay in the range of 0.1 to 1 µM.

For `COC[C@H](N)CNc1ccc(C(N)=O)c(Nc2cc(C)ns2)c1` [Example 29, (R)-4-(2-amino-3-methoxypropylamino)-2-(3-methylisothiazol-5-ylamino)benzamide], the IC50 lay within 0.1 to 1 µM.
